Assay results published in patent US20240383906A1, “5-SUBSTITUTED PYRIDINE-2(1H)-KETONE COMPOUND AND USE THEREOF” (JIANGSU KANION PHARMACEUTICAL CO., LTD., priority 2021, published 2024).

Key:
[1] = Pharmacokinetic evaluation in mice; format: in vivo; conditions: male CD-1 mice
Procedure: • CD-1 mice (male, 7 to 9 weeks old, Shanghai SLAC)
The pharmacokinetic characteristics of the compound in rodents were tested using a standard protocol after intravenous injection (IV) and oral (PO) administration. In the experiment, mice were given a single intravenous injection and oral administration. The solvent for the intravenous injection was water. The solvent for oral administration was 0.5% hydroxypropyl methylcellulose. This project involved four male CD-1 mice. Two of the mice were administered a dose of 0.5 mg/kg via intravenous injection. Plasma samples were collected at 0 hours (before administration) and at 0.083, 0.25, 0.5, 1, 2, 4, 8, and 24 hours after administration. The other two mice were administered a dose of 2.5 mg/kg via oral gavage. Plasma samples were collected at 0 h (before administration) and at 0.25, 0.5, 1, 2, 4, 8, and 24 hours after administration. Whole blood samples were collected within 24 hours, centrifuged at 3000 g for 15 minutes, and the supernatant was separated to obtain plasma samples. Four times the volume of acetonitrile solution containing an internal standard was added to precipitate the protein. After centrifugation, the supernatant was collected, an equal volume of water was added, and it was centrifuged again to collect the supernatant for sampling. The plasma concentration was quantitatively analyzed by LC-MS/MS analysis method, and the pharmacokinetic parameters were calculated, such as peak concentration (Cmax), clearance rate (CL), half-life (T1/2), volume of distribution at steady state (Vdss), area under drug-time curve (AUC0-last), bioavailability (F).

[2] = tested on: HuPrime® gastric cancer GA3055 subcutaneous xenograft model; assay: In vivo drug efficacy in HuPrime gastric cancer GA3055 subcutaneous xenograft model; design: species or system female BALB/C nude mice; conditions: BID
Excerpt: • GA3055 tumor-bearing mice were provided by Crown Bioscience (Taicang) Co., Ltd.
Tumor tissue was collected from tumor-bearing mice of the HuPrime® gastric cancer GA3055 xenograft model, and cut into tumor pieces with a diameter of 2 to 3 mm for subcutaneous inoculation in the right anterior scapular region of BALB/c nude mice. When the average tumor volume in the tumor-bearing mice reached approximately 150 mm^3, the mice were randomly grouped. The coefficient of variation (CV) of the tumor volume within each group was calculated using the formula CV=SD/MTV×100%, and should be less than 30%. Administration started on the day of grouping (the tumor volume was measured on the day of grouping). The day of grouping was defined as day 0.
Before the start of administration, all animals were weighed and the tumor volume was measured using a caliper. Given that the volume of the tumor could affect the effectiveness of the treatment, a random grouping design method was used. The mice were grouped based on the volume of their tumors to ensure similar tumor volumes across different groups. Grouping was done using StudyDirector™ (version 3.1.399.19, supplier: Studylog System, Inc., S. San Francisco, CA, USA).
The “Matched distribution” random grouping method was chosen for grouping, which could reflect the smallest intergroup differences at the tumor volume level. This algorithm matched the individual measurements of all selected animals with the average value of all selected animals. Firstly, those paired animals whose average values were close to the average value of all selected animals were chosen, and then they were allocated to groups so that the average value of the group matched (or was as close as possible to) the average value of all selected animals. The final average value of the measurements of each group was as close as possible to the final average value of the other groups.
After the inoculation of tumor cells, routine monitoring included the growth of the tumor and the impact of the treatment on the normal behavior of the animals. Specific content included the activity of the experimental animals, food and water intake, weight gain or loss, and any abnormalities in their eyes, fur, and other conditions. Any clinical symptoms observed during the experiment were recorded in the original data. After the start of administration, the weight of the mice and the size of the tumor were measured twice a week. […] The original data was directly imported into the software after being measured by a balance and caliper, and any changes in the data were recorded in this software. […]
All experimental results were expressed as the mean tumor volume±SEM (standard error of the mean). […] All data were analyzed using SPSS 18.0. […]

Cn1cc(-c2cnc(CNc3nccn4c(-c5cc(F)cc(F)c5)cnc34)cn2)ccc1=O [Compound 2]
F ([1]; IV 0.5 mg/kg, PO 2.5 mg/kg): 29.4% | clearance ([1]; mouse, plasma, IV 0.5 mg/kg): 5.37 mL/min/kg | half-life ([1]; mouse, plasma, IV 0.5 mg/kg, read-out: T1/2 (IV) (converted)): 5.99 h | Vd ([1]; mouse, plasma, IV 0.5 mg/kg, read-out: Vdss): 0.568 L/kg | AUC(0-t) ([1]; mouse, plasma, PO 2.5 mg/kg, read-out: AUC0-last (PO)): 20.5 µM·h | Cmax ([1]; mouse, plasma): 1760 nM | T/C % ([2]; 5 mg/Kg, 37 days): 12.97% | TGI % ([2]; 5 mg/Kg, 37 days): 94.6% | T/C % ([2]; 10 mg/Kg): 10.89% | TGI % ([2]; 10 mg/Kg): 96.8%
